Literature values, collected in patent US20100221361A1, “STABLE OXIDIZING BROMINE COMPOSITION, METHOD OF MANUFACTURE AND USE THEREOF FOR BIOFOULING CONTROL” (priority 2009, published 2010).

Details: in water

Compound: BrBr [elemental liquid bromine, bromine]
- solubility: < 4 g/ 100 g water
